Test results as given in patent publication US12097213B2, “Sequential treatment of cancers using 6-thio-dG, checkpoint inhibitors and radiation therapy” (The Board of Regents of the University of Texas System, priority 2020, dated 2024).

What was measured:
MC38 tumor cells = assay: MC38 tumor growth and treatment in mice; type: in vivo, mouse
Method: (§1) Tumor growth and treatment. A total of 5×10^5 MC38, 5×10^5 CT26 or 1×10^6 LLC cells were inoculated subcutaneously into right dorsal flanks of the mice in 100 μL phosphate buffered saline (PBS). Tumor-bearing mice were randomly grouped into treatment groups when tumors grew to around 100 mm^3. For 6-thio-dG single treatment, 3 mg/kg 6-thio-dG was intraperitoneally given on days 7, 8 and 9 in MC38 tumor and LLC tumor and on days 5, 6, 7 for CT26 tumor. For CSF1R, NKL.1, CD4+ and CD8+ T cell depletion, 200 μg of antibodies were intraperitoneally injected 1 day before treatment initiation and then twice a week for 2 weeks. For PD-L1 blockade combination therapy in MC38 model, 6-thio-dG was given on day 10 and day 11, 50 μg PD-L1 was intraperitoneally injected on day 13 and 17. For PD-L1 blockade combination therapy in LLC model, 6-thio-dG was given on day 4, 5, 6, 10 and 11, 200 μg PD-L1 was intraperitoneally injected on day 8 and 13. Tumor volumes were measured by the length (a), width (b) and height (h) and calculated as tumor volume=abh/2.

CT26 tumor cells = assay: CT26 tumor growth and treatment in mice; type: in vivo, mouse; conditions: BALB/C mice; 3 mg/kg, three days treatment (days 5, 6, 7)
Method: as §1

[1] = tested on: tumor infiltrating lymphocytes (TILs); assay: Flow cytometry of tumor infiltrating cells in MC38 tumor-bearing mice; type: in vivo, mouse
Method: Tumor digestion. Tumor tissues were excised and digested with 1 mg/mL Collagenase I (Sigma) and 0.5 mg/mL DNase I (Roche) in the 37° C. for 30 mins, tumor was then passed through a 70 μm cell strainer to remove large pieces of undigested tumor. Tumor infiltrating cells were washed twice with PBS containing 2 mM EDTA. Flow cytometry analysis. Single cell suspensions of cells were incubated with anti-FcγIII/II receptor (clone 2.4G2) for 15 minutes to block the non-specific binding before staining with the conjugated antibodies, and then incubated with indicated antibody for 30 mins at 4° C. in the dark. Fixable viability Dye eFlour 506 or eFlour780 (eBioscience) was used to exclude the dead cells. Foxp3 and Ki67 were stained intracellularly by using True-Nuclear transcription factor buffer set (BioLegend) following the manufacturer's instructions. Data were collected on CytoFLEX flow cytometer (Beckman Coulter, Inc) and analyzed by using FlowJo (Tree Star Inc., Ashland, OR) software.

[2] = tested on: DCs co-cultured with MC38 cells; assay: Detection of EdU-labeled tumor DNA in bone marrow derived dendritic cells; type: cell-based, mouse; conditions: MC38 labeled with 25 μM EdU, 1 μM 6-thio-dG
Method: Detection of DNA in Bone Marrow Derived Dendritic Cells. Cells were labeled with EdU as described previously (Min et al., 2019). Briefly, 100,000 MC38 cells were seeded to 6-well plate and labeled with 25 μM EdU. Two days later, cells were washed out and treated with 1 μM 6-thio-dG for 24 hrs. Cells were washed out again and co-cultured with BMDCs for overnight. Next day, DCs were sorted out with magnetic beads, washed, fixed and cytospun. Slides were then stained with 6-carboxytetramethlyrhodamine fluorescent azide (Invitrogen) in fresh homemade EdU-staining solution (PBS containing 1 mM CuSO4, 2 mM ascorbic acid) for 30 min. Slides were then washed vigorously with PBS for at least 1 hr, and then telomere FISH steps using a FAM-TelG probe were followed as described in “Telomere dysfunction Induced Foci (TIF) and micronuclei assays” method parts. Images were captured at 63× magnification with an Axio Imager Z2 equipped with an automatic metaphase capture system (Coolcubel camera) and analyzed with ISIS software (Metasystems).

A375 tumor cells = assay: A375 tumor model in NSG-SGM3 and humanized NSG-SGM3 mice; type: in vivo, mouse
Method: FIGS. 13A-F (related to FIGS. 6A-E). (FIGS. 13A-C) 12 weeks after humanized mouse reconstitution, human CD45+ cells and CD3+ T cells in mouse peripheral blood were tested by flow cytometry. (FIG. 13D) Cell viability (IC50) of 6-thio-dG in A375 human melanoma cancer cells. Cells were treated with 6-thio-dG for 4 days. (FIG. 13E) NSG-SGM3 mice (n=5) were inoculated with 2×10^6 A375 tumor cells and treated with 6-thio-dG (3 mg/kg, day 7 and day 8) or anti-PD-L1 plus anti-CTLA-4 (200 μg i.p., day 10 and day 13) or the combination of 6-thio-dG plus anti-PD-L1 and anti-CTLA-4. Tumor growth was measured every 3 days. (FIG. 13F) Humanized NSG-SGM3 mice (n=5-7) were inoculated with 2×10^6 A375 tumor cells and treated with 6-thio-dG (3 mg/kg, day 13 and day 14) or anti-PD-L1 plus anti-CTLA-4 (200 μg i.p., day 16 and day 19) or the combination of 6-thio-dG plus anti-PD-L1 and anti-CTLA-4. Tumor growth was measured every 3 days. Data were shown as mean±SEM. P value was determined by two-tailed unpaired t test (FIGS. 13B and 13C, n.s. p>0.05) or two-way ANOVA (FIG. 13F).
Humanized mouse tumor models. Humanized mouse reconstitution was previously described (Qiao et al., 2019). Briefly, four-week-old NSG-SGM3 female mice were irradiated with 100 cGy (X-ray irradiation with X-RAD 320 irradiator) one day prior to human CD34+ cells transfer. […] Tumor volumes were measured twice a week. […]

[3] = 6 days after the last of three daily doses, 3 mg/kg

## Nc1nc2c(ncn2[C@H]2C[C@H](O)[C@@H](CO)O2)c(=S)[nH]1 [6-thio-dG, 6-thio-2′-deoxyguanosine]
MC38 tumor cells; 200 μg anti-CD4, 3 mg/kg, days 7, 8, 9
  therapeutic effect on tumor growth with CD4+ T cell depletion: marginal influence
MC38 tumor cells; 200 μg anti-CD8, 3 mg/kg, days 7, 8, 9
  therapeutic effect on tumor growth with CD8+ T cell depletion: completely abolished
MC38 tumor cells; 200 μg anti-CSF1R, 3 mg/kg, days 7, 8, 9
  tumor growth with macrophage depletion: worked even better
MC38 tumor cells; 200 μg anti-NK1.1, 3 mg/kg, days 7, 8, 9
  therapeutic effect with NK cell depletion: did not see an impact
MC38 tumor cells; Batf3 deficient mice, 3 mg/kg, days 7, 8, 9
  tumor growth: partially delayed tumor growth but was significantly less effective compared with WT mice
MC38 tumor cells; Batf3−/− mice
  mice tumor free: none
MC38 tumor cells; Ifnar1−/− mice, 3 mg/kg, days 7, 8, 9
  anti-tumor effect: abolished
MC38 tumor cells; Mb21d1KO MC38 tumor cells in C57BL/6 mice, 3 mg/kg, days 7, 8, 9
  tumor growth: still controlled tumor growth
MC38 tumor cells; Myd88−/− mice, 3 mg/kg, days 7, 8, 9
  tumor growth: controlled tumor growth well
MC38 tumor cells; Rag1 knock out mice, 3 mg/kg, days 7, 8, 9
  therapeutic effect on tumor growth: completely diminished
MC38 tumor cells; Tmem173KO MC38 tumor cells in C57BL/6 mice, 3 mg/kg, days 7, 8, 9
  tumor growth: still controlled tumor growth
MC38 tumor cells; Tmem173−/− mice, 3 mg/kg, days 7, 8, 9
  tumor growth (efficacy): completely lost efficacy
MC38 tumor cells; WT C57BL/6 mice, 3 mg/kg daily for three days (days 7, 8, 9), i.p., vs control tumor
  tumor growth: significantly reduced
MC38 tumor cells; WT mice
  mice completely tumor free: 60%
MC38 tumor cells; cured mice rested 5 weeks, 10 times more tumor cells, opposite flank
  re-challenge with MC38 tumor (memory response): spontaneously rejected re-challenged MC38 tumors
MC38 tumor cells; tumor sizes 150-200 mm^3, 6-thio-dG 3 mg/kg days 10, 11, 50 μg anti-PD-L1 days 13 and 17
  tumor volume / tumor growth in advanced tumors: difficult to control
CT26 tumor cells
  tumor growth: significant tumor growth delay
[1]; 3 mg/kg, days 7, 8, 9
  Treg cells (CD4+ Foxp3+): no significant changes
  tumor infiltrating NK cells: increased
[1]; 3 mg/kg, days 7, 8, 9, 7 days after first treatment
  PD-1 expression on CD8+ T cells (frequency and per cell basis): upregulated
[1]; 6 days after last treatment, 3 mg/kg
  CD8+ T cell proliferation (Ki67 expression): significant upregulation
[1]; [3]
  frequency of CD3+ T cells in TILs: increase
  frequency of CD8+ T cells in TILs: increase
[1]; IFN-γ YFP reporter mice, eleven days after last treatment
  YFP+ T cells in the tumor: significantly increased
[1]; MC38-OVA tumor model, 6 days after 6-thio-dG treatment
  tumor-specific (OVA tetramer) CD8+ T cells in tumors: increased
[2]
  telomere co-localization with EdU in EdU+ DCs: increase
A375 tumor cells; humanized NSG-SGM3 mice, 6-thio-dG 3 mg/kg day 13 and 14, anti-PD-L1 plus anti-CTLA-4 200 μg i.p. day 16 and 19
  tumor growth / tumor burden: partially delayed tumor growth
A375 tumor cells; immunocompromised NSG-SGM3 mice, 3 mg/kg, day 7 and day 8
  tumor growth: did not observe any effect
